± gives the expanded uncertainty stated by the source.
Settings: Crystal; visual observation

| Compound | Normal melting temperature [°C] |
| --- | --- |
| CN(C)c1ccc(C(=C2C=CC(=[N+](C)C)C=C2)c2ccccc2)cc1.CN(C)c1ccc(C(=C2C=CC(=[N+](C)C)C=C2)c2ccccc2)cc1.O=C(O)C(=O)O.O=C([O-])C(=O)O.O=C([O-])C(=O)O [Malachite green oxalate] | 160.00 ± 1.1 |
| Cc1cc2nc3cc(C)c(N)cc3[n+](-c3ccccc3)c2cc1N.[Cl-] [Safranine O] | 300.00 ± 1.1 |
